In US9175022B2, “Compounds for the treatment of proliferative disorders” (Synta Pharmaceuticals Corp., priority 2005, dated 2015):

Legend:
HL-60-TX1000 (MDR) = assay: In vitro cytotoxicity, MTS assay, 72 hours; type: cell-based; conditions: Homo sapiens, HL60/TX1000, HL-60-TX1000 multi-drug resistant, read-out: IC50 (concentration required to inhibit 50% tumor cell growth)
Protocol: (§1) The in vitro cytotoxicity of the compounds of the invention was determined in the following human cell lines: HL-60, HL-60-TX1000 (MDR), MES-SA and MES-SA/DX5 (uterine sarcoma). MES-SA is a model of uterine sarcoma, and the cells are sensitive to a number of chemotherapeutic agents including doxorubicin, dactinomycin, mitomycin C, taxol and bleomycin. The MES-SA/Dx5 cell line was established in the presence of increasing concentrations of doxorubicin. […] All cells except HL-60-TX1000 were purchased from ATCC. HL-60, a model of myeloid leukemia, was from ATCC and HL60/TX1000 was a gift from Dr. Bhalla of Emory University School of Medicine. HL-60/TX1000 was isolated in vitro by subculturing HL-60 in progressively higher concentration of Taxol. HL-60/TX1000 cells over-express mdr-1 mRNA and p-glycoprotein, as determined by western blot and immunofluorescence labeling with antiPGP antibodies
(§2) The cell lines were maintained in RPMI1640 (GIBCO) supplemented with 10% FCS, 100 units/mL penicillin, 100 ug/ml streptomycin, and 2 mM L-glutamine. Cells were split every third day and diluted to a concentration of 2×10^5 cells/mL one day before the experiment was performed. All experiments were performed on exponentially growing cell cultures. Cell densities were 2.5×10^4 cells/mL in all experiments.
(§3) Test compounds were prepared by dissolving the compounds at a concentration of 10 mM in 100% DMSO. Final concentrations 10, 1, 0.1, 0.01 and 0.001 μM were obtained by diluting the stock solution directly into the tissue culture medium. Cells were incubated with varying concentrations of test compounds for 72 hours and the IC50 was determined by MTS (i.e. […]) assay. IC50 in this context stands for the concentration of a compound required to inhibit 50% tumor cell growth.

HL-60 = assay: In vitro cytotoxicity, MTS assay, 72 hours; type: cell-based; conditions: Homo sapiens, HL-60, 72 hours, read-out: IC50 (concentration required to inhibit 50% tumor cell growth)
Protocol: as §1, §2, §3

[1] = tested on: MES-SA/DX5 (uterine sarcoma); assay: In vitro cytotoxicity, MTS assay, 72 hours; type: cell-based; conditions: Homo sapiens, MES-SA/DX5 multi-drug resistant, read-out: IC50 (concentration required to inhibit 50% tumor cell growth)
Protocol: as §1, §2, §3

MES-SA = assay: In vitro cytotoxicity, MTS assay, 72 hours; type: cell-based; conditions: Homo sapiens, read-out: IC50 (concentration required to inhibit 50% tumor cell growth)
Protocol: as §1, §2, §3

[2] = tested on: MDA-MB-435S melanoma cells or RERF-LC-AI lung tumor cells; assay: Anti-tumor activity in nude mouse xenograft models; type: in vivo; conditions: i.v.
Protocol: The human tumor cell line, MDA-MB-435S (ATCC #HTB-129; G. Ellison, et al., Mol. Pathol. 55:294-299, 2002), is obtained from the American Type Culture Collection (ATCC; Manassas, Va., USA). The human tumor cell line, RERF-LC-AI (RCB0444; S. Kyoizumi, et al., Cancer. Res. 45:3274-3281, 1985), is obtained from the Riken Cell Bank (RCB; Tsukuba, Ibaraki, Japan). The cell lines are cultured in growth media prepared from 50% Dulbecco's Modified Eagle Medium (high glucose), 50% RPMI Media 1640, 10% fetal bovine serum (FBS), 1% 100×L-glutamine, 1% 100× Penicillin-Streptomycin, 1% 100× sodium pyruvate and 1% 100×MEM non-essential amino acids. FBS is obtained from ATCC and all other reagents are obtained from Invitrogen Corp. (Carlsbad, Calif., USA). […] The supernatant is aspirated and the cell pellet is resuspended in 10 mL of growth media and the cell number is determined using a hemocytometer. […]
Tumors are then permitted to develop in vivo until they reached approximately 100-200 mm^3 in volume, which typically required 2-3 weeks following implantation. Tumor volumes (V) are calculated by caliper measurement of the width (W), length (L) and thickness (T) of tumors using the following formula: V=0.5326×(L×W×T). […]

CV-1 cells = assay: Microtubule disruption in cells resistant to colchicine and vincristine; type: cell-based; conditions: 500 nM; 24, 48 and 72 hr
Protocol: The effects of compounds of the invention on microtubules can be studied in CV-1 cells. The microtubules of CV-1 cells are known to be resistant to the depolymerizing effects of colchicine and vincristine. CV-1 cells are treated with 500 nM of a compound of the invention, or vincristine or colchicines. At 24, 48 and 72 hr the cells are fixed and stained to examine microtubule structure. In cells treated with compounds of the invention, microtubule structures are expected to be diminished compared to untreated cells.

[3] = tested on: CHO-α-tubulin-YFP or MCF7-α-tubulin-YFP cells; assay: Inhibition of tubulin polymerization, tubulin-YFP fluorescence imaging; type: cell-based; conditions: living or fixed cells, fluorescence microscopy
Text: Wild-type Chinese Hamster Ovary cells (WT CHO) cells are maintained in Ham's F-12 medium supplemented with 10% fetal bovine serum (FBS; HyClone, Logan, Utah). Cells of low density (−20%) growing on 2-well chambered cover-slips (Labtek (Campbell, Calif.) or Fisher Scientific) are transfected with a mammalian expression vector encoding α-tubulin-YFP (Clontech, Palo Alto, Calif.) with the use of FuGENE 6 (Roche Molecular Biochemicals, Indianapolis, Ind.), according to the manufacturer's instructions. Twenty-four hours after transfection, the cells are cultured in 400 μg/ml G418 (Invitrogen, Carlsbad, Calif.)-containing selection medium for 2 weeks. Living cells are examined using a fluorescent microscope for α-tubulin-YFP expression. […] Expressed tubulin-YFP is detected as a single band in Western blots. […]
CHO-α-tubulin-YFP or MCF7-α-tubulin-YFP cells are cultured in 2-well chambered cover-slips (Labtek (Campbell, Calif.) or Fisher Scientific) for 24 hours before treatment with a compound of the invention. […] Tubulin-YFP fluorescence in living cells or fixed cells is captured using a standard filter for FITC and objectives of 20× or 60× magnification on a Nikon TE300 microscope with a Leica DC50 color digital camera (Leica, Bannockburn, Ill.) or a CoolSnap HQ monochrome CCD camera (Photonetrics, Tucson, Ariz.). […]

SMILES	IC50 (HL-60-TX1000 (MDR)) [nM]	IC50 (HL-60) [nM]	IC50 [1] [nM]	IC50 (MES-SA) [nM]	overt toxicity (effect on body weights) ([2]; nude mice)	microtubule structure (CV-1 cells)	tumor growth ([2]; 3 days per week, 9-10 doses, compounds 6.25, 12.5 and 25 mg/kg, paclitaxel 7.5 mg/kg)	tubulin-YFP labeled microtubule pattern [3]
COc1ccc(-c2cnnn2-c2cc(OC)c(OC)c(OC)c2)cc1 [Compound 3, 1-(3,4,5-trimethoxy-phenyl)-5-(4-methoxy-phenyl)-1H-[1,2,3]triazole]	20	53	37	52	minimal			
CC[C@]1(O)C[C@H]2CN(CCc3c([nH]c4ccccc34)[C@@](C(=O)OC)(c3cc4c(cc3OC)N(C=O)[C@H]3[C@@](O)(C(=O)OC)[C@H](OC(C)=O)[C@]5(CC)C=CCN6CC[C@]43[C@@H]65)C2)C1 [vincristine, Vincristine]						Disorganized but clear microtubule structures		
CC(=O)O[C@H]1C(=O)[C@@]2(C)[C@H]([C@H](OC(=O)c3ccccc3)[C@]3(O)C[C@H](OC(=O)[C@H](O)[C@@H](NC(=O)c4ccccc4)c4ccccc4)C(C)=C1C3(C)C)[C@]1(OC(C)=O)CO[C@@H]1C[C@@H]2O [paclitaxel, reference compound]							decreased tumor growth	
COc1cc2c(c(OC)c1OC)-c1ccc(OC)c(=O)cc1[C@@H](NC(C)=O)CC2 [colchicines, colchicine]						Disorganized but clear microtubule structures		
COc1cc(-n2nncc2-c2ccc(N(C)C)cc2)cc(OC)c1OC [Compound 5, 1-(3,4,5-trimethoxy-phenyl)-5-[4-(N,N-dimethylamino)-phenyl]-1H-[1,2,3]triazole]	7.5	41.5	29	68.5				
CC(=O)O[C@H]1C(=O)[C@@]2(C)[C@H]([C@H](OC(=O)c3ccccc3)[C@]3(O)C[C@H](OC(=O)[C@H](O)[C@@H](NC(=O)c4ccccc4)c4ccccc4)C(C)=C1C3(C)C)[C@]1(OC(C)=O)CO[C@@H]1C[C@@H]2O [Taxol, paclitaxel, reference compound]	1000	2	5000	5				microtubule bundle formation
